IC50 data for 35 compounds are collected here from patent US9023847B2, “Azaheterocyclic compounds” (Merck Patent GmbH, priority 2009, dated 2015).

Usually pIC50 stands for the negative decadic logarithm of the IC50, by convention in mol/L.

pIC50: −log10 of the molar value.

T1 sequence (P23443 whole entry T412E): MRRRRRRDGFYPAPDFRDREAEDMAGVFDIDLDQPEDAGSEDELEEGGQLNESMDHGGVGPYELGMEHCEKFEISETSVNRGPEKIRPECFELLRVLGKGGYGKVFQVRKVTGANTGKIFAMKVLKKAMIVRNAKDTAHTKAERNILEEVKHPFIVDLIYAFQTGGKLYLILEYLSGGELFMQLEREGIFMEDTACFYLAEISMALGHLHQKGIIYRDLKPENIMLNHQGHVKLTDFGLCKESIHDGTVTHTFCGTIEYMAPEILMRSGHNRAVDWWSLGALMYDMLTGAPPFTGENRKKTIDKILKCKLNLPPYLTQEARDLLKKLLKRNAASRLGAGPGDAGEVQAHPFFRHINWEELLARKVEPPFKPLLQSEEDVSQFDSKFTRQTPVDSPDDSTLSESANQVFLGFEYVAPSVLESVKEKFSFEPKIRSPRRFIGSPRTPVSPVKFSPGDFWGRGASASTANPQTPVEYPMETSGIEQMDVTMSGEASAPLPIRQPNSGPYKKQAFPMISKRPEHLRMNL

The first experiment has as its target T1, P70S6K (T412E mutant, Millipore) (Homo sapiens, UniProt P23443, T412E).
T1 construct: purchased Millipore
Description: p70S6K enzyme assay. The following applies: Table 1; 3 nM P70S6K, 24 μM ATP, 90 min at 25° C.; read-out: p70S6K inhibition (IC50). It counts as biochemical. A digest of the protocol:
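T412E-mutant P70S6K (3 nM) with 24 μM ATP and 1 μM FITC-AHA-AKRRRLSSLRA-OH S6-derived peptide in 100 mM Hepes pH 7.5, 5 mM MgCl2, 1 mM DTT, 0.015% Brij; 90 min at 25° C, EDTA stop. Phosphorylated product and substrate peptide separated and quantified by microfluidic capillary electrophoresis (Caliper LabChip 3000).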
Take `CC(C)(C)OC(=O)N(CCNC(=O)c1occc1Nc1ncnc2[nH]ccc12)Cc1ccccc1` [Example 157, Benzyl-(2-{[3-(7H-pyrrolo[2,3-d]pyrimidin-4-ylamino)-furan-2-carbonyl]-amino}-ethyl)-carbamic acid tert-butyl ester]: the negative-log IC50 (pIC50) was 5.00 to 6.00. On the same count and under the same terms, the value for `Cc1cc(Nc2ncnc3[nH]ccc23)c(C(=O)NCc2cccc(Cl)c2)s1` [Example 152, 5-Methyl-3-(7H-pyrrolo[2,3-d]pyrimidin-4-ylamino)-thiophene-2-carboxylic acid 3-chloro-benzylamide] was more than 7.00.

Staying with this experiment, now noted: class symbol; 3 nM P70S6K, 24 μM ATP; read-out: IC50 (p70S6K).
For the compound `O=C(NCCOCc1ccccc1)c1sccc1Nc1ccnc2[nH]ccc12` [Example 68, 3-(1H-Pyrrolo[2,3-b]pyridin-4-ylamino)-thiophene-2-carboxylic acid (2-benzyloxy-ethyl)-amide], the pIC50 was more than 7.00. Consider `[N-]=[N+]=NC[C@@H](NC(=O)c1ccsc1Nc1ccnc2[nH]ccc12)c1ccccc1` [Example 114, 2-(1H-Pyrrolo[2,3-b]pyridin-4-ylamino)-thiophene-3-carboxylic acid ((S)-2-azido-1-phenyl-ethyl)-amide], for which the pIC50 is more than 7.00. Take `O=C(NCc1ccccn1)c1sccc1Nc1ccnc2[nH]ccc12` [Example 7, 3-(1H-Pyrrolo[2,3-b]pyridin-4-ylamino)-thiophene-2-carboxylic acid (pyridin-2-ylmethyl)-amide]: the pIC50 was 6.00 to 7.00.

On to `O=C(NCCc1cccc(F)c1)c1sccc1Nc1ccnc2[nH]ccc12` [Example 22, 3-(1H-Pyrrolo[2,3-b]pyridin-4-ylamino)-thiophene-2-carboxylic acid [2-(3-fluoro-phenyl)-ethyl]-amide], for which the pIC50 was more than 7.00. `COc1ccc(NC(=O)c2sccc2Nc2ccnc3[nH]ccc23)cc1` [Example 36, 3-(1H-Pyrrolo[2,3-b]pyridin-4-ylamino)-thiophene-2-carboxylic acid (4-methoxy-phenyl)-amide]: the pIC50 was more than 7.00.

Consider `O=C(NCCc1cccc(Cl)c1)c1sccc1Nc1ccnc2[nH]ccc12` [Example 20, 3-(1H-Pyrrolo[2,3-b]pyridin-4-ylamino)-thiophene-2-carboxylic acid [2-(3-chloro-phenyl)-ethyl]-amide], for which the pIC50 is more than 7.00.

`O=C(NCC(O)c1ccccc1)c1sccc1Nc1ccnc2[nH]ccc12` (centres unmarked) [Example 99, 3-(1H-Pyrrolo[2,3-b]pyridin-4-ylamino)-thiophene-2-carboxylic acid (2-hydroxy-2-phenyl-ethyl)-amide]: the pIC50 was more than 7.00.

As to `O=C(NCc1ccccc1)c1sccc1Nc1ncnc2[nH]ccc12` [Example 172, 3-(7H-Pyrrolo[2,3-d]pyrimidin-4-ylamino)-thiophene-2-carboxylic acid benzylamide], the pIC50 was more than 7.00. Same read-out and setting: for `O=C(NCCNC(=O)c1sccc1Nc1ccnc2[nH]ccc12)c1ccccc1` [Example 70, 3-(1H-Pyrrolo[2,3-b]pyridin-4-ylamino)-thiophene-2-carboxylic acid (2-benzoylamino-ethyl)-amide] the value was more than 7.00; for `O=C(NC1CCNC1)c1ccsc1Nc1ccnc2[nH]ccc12` (centres unmarked) [Example 103, 2-(1H-Pyrrolo[2,3-b]pyridin-4-ylamino)-thiophene-3-carboxylic acid pyrrolidin-3-ylamide], more than 7.00. Regarding `CN(C)CC(NC(=O)c1sccc1Nc1ccnc2[nH]ccc12)c1ccc(F)cc1` (centres unmarked) [Example 166, 3-(1H-Pyrrolo[2,3-b]pyridin-4-ylamino)-thiophene-2-carboxylic acid [2-dimethylamino-1-(4-fluoro-phenyl)-ethyl]-amide], the pIC50 is more than 7.00. The same measure, in the same setting: for `O=C(c1sccc1Nc1ccnc2[nH]ccc12)N1CCCC1` [Example 4, Pyrrolidin-1-yl-[3-(1H-pyrrolo[2,3-b]pyridin-4-ylamino)-thiophen-2-yl]-methanone] the value was 6.00 to 7.00; for `Cc1ccccc1CCNC(=O)c1sccc1Nc1ccnc2[nH]ccc12` [Example 25, 3-(1H-Pyrrolo[2,3-b]pyridin-4-ylamino)-thiophene-2-carboxylic acid (2-o-tolyl-ethyl)-amide], more than 7.00. As to `NC(=O)C[C@@H](NC(=O)c1sccc1Nc1ccnc2[nH]ccc12)c1ccccc1` [Example 120, 3-(1H-Pyrrolo[2,3-b]pyridin-4-ylamino)-thiophene-2-carboxylic acid ((R)-2-carbamoyl-1-phenyl-ethyl)-amide], the pIC50 was more than 7.00.

With `COc1ccc(C(CN)NC(=O)c2ccsc2Nc2ccnc3[nH]ccc23)cc1OC` (centres unmarked) [Example 110, 2-(1H-Pyrrolo[2,3-b]pyridin-4-ylamino)-thiophene-3-carboxylic acid [2-amino-1-(3,4-dimethoxy-phenyl)-ethyl]-amide], the pIC50 is more than 7.00. The same measure, in the same setting: for `NC1CCN(C(=O)c2sccc2Nc2ccnc3[nH]ccc23)CC1` [Example 64, (4-Amino-piperidin-1-yl)-[3-(1H-pyrrolo[2,3-b]pyridin-4-ylamino)-thiophen-2-yl]-methanone] the value was 5.00 to 6.00; for `O=C(NCCc1ccc(F)cc1)c1sccc1Nc1ncnc2[nH]ccc12` [Example 179, 3-(7H-Pyrrolo[2,3-d]pyrimidin-4-ylamino)-thiophene-2-carboxylic acid [2-(4-fluoro-phenyl)-ethyl]-amide], more than 7.00; for `O=C(NCc1cccc(Cl)c1)c1sccc1Nc1ccnc2[nH]ccc12` [Example 30, 3-(1H-Pyrrolo[2,3-b]pyridin-4-ylamino)-thiophene-2-carboxylic acid 3-chloro-benzylamide], more than 7.00. Same read-out and setting: for `O=C(NCCc1ccncc1)c1sccc1Nc1ccnc2[nH]ccc12` [Example 17, 3-(1H-Pyrrolo[2,3-b]pyridin-4-ylamino)-thiophene-2-carboxylic acid (2-pyridin-4-yl-ethyl)-amide] the value was 6.00 to 7.00. Same read-out and setting: for `O=C(Nc1ccc(Cl)cc1)c1sccc1Nc1ccnc2[nH]ccc12` [Example 35, 3-(1H-Pyrrolo[2,3-b]pyridin-4-ylamino)-thiophene-2-carboxylic acid (4-chloro-phenyl)-amide] the value was more than 7.00; for `CC(C)[C@@H](CO)NC(=O)c1sccc1Nc1ccnc2[nH]ccc12` [Example 96, 3-(1H-Pyrrolo[2,3-b]pyridin-4-ylamino)-thiophene-2-carboxylic acid ((S)-1-hydroxymethyl-2-methyl-propyl)-amide], 6.00 to 7.00; for `COc1cc(CNC(=O)c2sccc2Nc2ccnc3[nH]ccc23)cc(OC)c1` [Example 95, 3-(1H-Pyrrolo[2,3-b]pyridin-4-ylamino)-thiophene-2-carboxylic acid 3,5-dimethoxy-benzylamide], 6.00 to 7.00. `O=C(Nc1cccc(CNC(=O)c2sccc2Nc2ccnc3[nH]ccc23)c1)c1ccnc(Cl)c1` [Example 129, 2-Chloro-N-[3-({[3-(1H-pyrrolo[2,3-b]pyridin-4-ylamino)-thiophene-2-carbonyl]-amino}-methyl)-phenyl]-isonicotinamide]: the negative-log IC50 (pIC50) was more than 7.00. For the compound `O=C(NCc1ccc(Cl)c(C(F)(F)F)c1)c1sccc1Nc1ccnc2[nH]ccc12` [Example 98, 3-(1H-Pyrrolo[2,3-b]pyridin-4-ylamino)-thiophene-2-carboxylic acid 4-chloro-3-trifluoromethyl-benzylamide], the negative-log IC50 (pIC50) is more than 7.00.

Turning to `O=C(NCc1ccccc1)c1ccsc1Nc1ccnc2[nH]ccc12` [Example 112, 2-(1H-Pyrrolo[2,3-b]pyridin-4-ylamino)-thiophene-3-carboxylic acid benzylamide], the pIC50 was more than 7.00. Still for that read-out and setting: for `CC(=O)NCCCCNC(=O)c1sccc1Nc1ccnc2[nH]ccc12` [Example 32, 3-(1H-Pyrrolo[2,3-b]pyridin-4-ylamino)-thiophene-2-carboxylic acid (4-acetylamino-butyl)-amide] the value was 6.00 to 7.00; for `CC(=O)N(CCNC(=O)c1sccc1Nc1ccnc2[nH]ccc12)Cc1ccccc1` [Example 45, 3-(1H-Pyrrolo[2,3-b]pyridin-4-ylamino)-thiophene-2-carboxylic acid [2-(acetyl-benzyl-amino)-ethyl]-amide], 6.00 to 7.00; for `O=C(CNC(=O)c1sccc1Nc1ccnc2[nH]ccc12)NCc1ccccc1` [Example 73, 3-(1H-Pyrrolo[2,3-b]pyridin-4-ylamino)-thiophene-2-carboxylic acid (benzylcarbamoyl-methyl)-amide], 6.00 to 7.00. On the same count and under the same terms, for `CCNc1cc(C(=O)Nc2cccc(CNC(=O)c3sccc3Nc3ccnc4[nH]ccc34)c2)ccn1` [Example 165, 2-Ethylamino-N-[3-({[3-(1H-pyrrolo[2,3-b]pyridin-4-ylamino)-thiophene-2-carbonyl]-amino}-methyl)-phenyl]-isonicotinamide] the value was more than 7.00; for `NCC(NC(=O)c1ccsc1Nc1ccnc2[nH]ccc12)c1cccc(F)c1` (centres unmarked) [Example 108, 2-(1H-Pyrrolo[2,3-b]pyridin-4-ylamino)-thiophene-3-carboxylic acid [2-amino-1-(3-fluoro-phenyl)-ethyl]-amide], more than 7.00; for `O=C(NCc1cccnc1)c1sccc1Nc1ccnc2[nH]ccc12` [Example 8, 3-(1H-Pyrrolo[2,3-b]pyridin-4-ylamino)-thiophene-2-carboxylic acid (pyridin-3-ylmethyl)-amide], 6.00 to 7.00. On the same count and under the same terms, for `O=C(N[C@H](CO)Cc1ccccc1)c1sccc1Nc1ccnc2[nH]ccc12` [Example 86, 3-(1H-Pyrrolo[2,3-b]pyridin-4-ylamino)-thiophene-2-carboxylic acid ((S)-1-benzyl-2-hydroxy-ethyl)-amide] the value was more than 7.00. On to `CC(C)(C)OC(=O)N1CCCC(NC(=O)c2sccc2Nc2ncnc3[nH]ccc23)C1` (centres unmarked) [Example 184, 3-{[3-(7H-Pyrrolo[2,3-d]pyrimidin-4-ylamino)-thiophene-2-carbonyl]-amino}-piperidine-1-carboxylic acid tert-butyl ester], for which the pIC50 is 6.00 to 7.00.
